Results reported in patent US20240376097A1, “BCL-2 Inhibitor” (BeiGene Ltd., priority 2020, published 2024).
Like-named read-outs stand apart in the source and are kept apart here. Each block holds one compound with its values, some of them ahead of it.

How the values were obtained:
[1] = biological target: Recombinant human Bcl-2 protein (Homo sapiens (Human), UniProt P10415); assay: Bcl-2 TR-FRET Assay; format: binding
Summary of the method: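 0.05 nM recombinant Bcl-2 preincubated 0.5 h at room temperature with 10-point compound dilutions (top final 1, 0.1, 0.02 or 0.01 uM) in pH 7.5 phosphate buffer. FITC-Bak peptide (0.5 nM) and anti-6His Tb cryptate then added for 1 h. TR-FRET read; IC50 from four-parameter logistic fit.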

[2] = biological target: recombinant human Bcl-2-G101V protein (Homo sapiens (Human), UniProt P10415, G101V); assay: Bcl-2-G101V TR-FRET Assay; format: binding; conditions: Bcl-2 G101V mutant, TR-FRET; read-out: Biochemical assay (IC50, nM) Bcl-2 G101V
Summary of the method: (§1)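 Compounds were titrated at increasing concentrations against the Bcl-2-G101V–ligand interaction. TR-FRET signals were then read (ex 337 nm; em 490/520 nm). Percent inhibition was derived from the 490-to-520 nm ratio, and IC50 from a four-parameter logistic equation.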

[3] = tested on: recombinant human Bcl-2-G101V protein; assay: Bcl-2-G101V TR-FRET Assay; format: binding; conditions: ratio of biochemical IC50 Bcl-2 G101V / Bcl-2 WT
Summary of the method: as §1

[4] = tested on: RS4;11 (BCL-2 dependent acute lymphoblastic leukemia cell line); assay: RS4;11 Cell Proliferation Assay; format: cell-based; conditions: Homo sapiens, RS4-11, RS4;11 cells, read-out: Cellular proliferation assay (IC50, nM) RS4
Summary of the method: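 RS4;11 cells, 50,000 per well in RPMI-1640 with 10% FBS, treated 48 h at 37 °C with a 10-point dilution series topping at 1 μM. Viability read by CellTiter-Glo ATP luminescence; mean IC50 reported.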

[5] = tested on: BCL-2 G101V knock-in cell line H96 (derive from RS4;11); assay: Bcl 2-G101V Knock-In RS4;11 Cell Proliferation Assay; format: cell-based; conditions: Homo sapiens, RS4;11 Bcl-2 G101V knock-in clone H96, 48 hrs, CellTiter-GLO, read-out: Cellular proliferation assay (IC50, nM) RS4
Summary of the method: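 H96, a CRISPR-generated RS4;11 clone carrying BCL2-G101V knock-in (WES/RNA-seq validated), seeded 50,000 per well and exposed 48 h at 37 °C to 10-point dilutions topping at 1 or 10 μM. Viability by CellTiter-Glo luminescence; mean IC50.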

[6] = biological target: recombinant human Bcl-2 D103Y protein (Homo sapiens (Human), UniProt P10415, D103Y); assay: Bcl-2-D103Y Biochemical Assay (TR-FRET); format: binding; conditions: for IC50: TR-FRET, FITC labeled Bak peptide; for Ratio of Bcl-2 D103Y/Bcl-2 WT: ratio of IC50
Summary of the method: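 Recombinant human Bcl-2 D103Y binding to its ligand measured by TR-FRET (ex 337 nm, em 490/520 nm) with increasing compound concentrations. Percent inhibition from the 490/520 nm ratio; IC50 from four-parameter logistic fit.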

[7] = Bcl-2 wild type, TR-FRET, read-out: Biochemical assay (IC50, nM) Bcl-2 WT
[8] = wild type Bcl-2, unit inferred, read-out: Bcl-2 WT

Structure (SMILES): COc1cc(CN2CCN(C3CC4(C3)CN(c3ccc(C(=O)NS(=O)(=O)c5ccc(NCC6CCOCC6)c([N+](=O)[O-])c5)c(Oc5cnc6[nH]ccc6c5)c3)C4)[C@H](c3ccccc3C(C)C)C2)ccc1C1CC1 [Example 319]
IC50 [1, 7]: 0.25 nM
IC50 [1, 8]: 0.25 nM
IC50 [2]: 0.85 nM
Ratio of Bcl-2 G101V/WT [3]: 3.3
IC50 [4]: 0.24 nM
IC50 [5]: 0.84 nM
IC50 [6]: 420 pM
Ratio of Bcl-2 D103Y/Bcl-2 WT [6]: 1.7

Structure (SMILES): CC(C)c1ccccc1C1CN(Cc2ccc(S(C)(=O)=O)cc2)CCN1C1CC2(CCN(c3ccc(C(=O)NS(=O)(=O)c4ccc(NC[C@H]5CC[C@](C)(O)CC5)c([N+](=O)[O-])c4)c(Oc4cnc5[nH]ccc5c4)c3)CC2)C1 (some centres unmarked) [Example 82, 2-((1H-pyrrolo[2,3-b]pyridin-5-yl)oxy)-N-((4-((((1r,4r)-4-hydroxy-4-methylcyclohexyl)methyl)amino)-3-nitrophenyl)sulfonyl)-4-(2-(2-(2-isopropylphenyl)-4-(4-(methylsulfonyl)benzyl)piperazin-1-yl)-7-azaspiro[3.5]nonan-7-yl) benzamide]
IC50 [1, 7]: 0.031 nM
IC50 [1, 8]: 0.031 nM
IC50 [2]: 0.29 nM
Ratio of Bcl-2 G101V/WT [3]: 9.5
IC50 [4]: 0.42 nM
IC50 [5]: 2.67 nM
IC50 [6]: 170 pM
Ratio of Bcl-2 D103Y/Bcl-2 WT [6]: 5.6

Structure (SMILES): CC(C)c1ccccc1[C@@H]1CN(Cc2ccc(C3COC3)cc2)CCN1C1CC2(C1)CN(c1ccc(C(=O)NS(=O)(=O)c3ccc(NC[C@H]4CC[C@](C)(O)CC4)c([N+](=O)[O-])c3)c(Oc3cnc4[nH]cc(F)c4c3)c1)C2 [Example 362, 2-((3-fluoro-1H-pyrrolo[2,3-b]pyridin-5-yl)oxy)-N-((4-((((1r,4r)-4-hydroxy-4-methylcyclohexyl)methyl)amino)-3-nitrophenyl)sulfonyl)-4-(6-((R)-2-(2-isopropylphenyl)-4-(4-(oxetan-3-yl)benzyl)piperazin-1-yl)-2-azaspiro[3.3]heptan-2-yl) benzamide]
IC50 [1, 7]: 0.07 nM
IC50 [1, 8]: 0.069 nM
IC50 [2]: 0.14 nM
Ratio of Bcl-2 G101V/WT [3]: 2
IC50 [4]: 0.08 nM
IC50 [5]: 0.17 nM
IC50 [6]: 95 pM
Ratio of Bcl-2 D103Y/Bcl-2 WT [6]: 1.4

Structure (SMILES): CC(C)c1ccccc1C1CN(Cc2cnn(C3CC3)c2)CCN1C1CC2(CCN(c3ccc(C(=O)NS(=O)(=O)c4ccc(NC[C@H]5CC[C@](C)(O)CC5)c([N+](=O)[O-])c4)c(Oc4cnc5[nH]ccc5c4)c3)CC2)C1 (some centres unmarked) [Example 70, 2-((1H-pyrrolo[2,3-b]pyridin-5-yl)oxy)-4-(2-(4-((1-cyclopropyl-1H-pyrazol-4-yl)methyl)-2-(2-isopropylphenyl)piperazin-1-yl)-7-azaspiro[3.5]nonan-7-yl)-N-((4-((((1r,4r)-4-hydroxy-4-methylcyclohexyl)methyl)amino)-3-nitrophenyl)sulfonyl)benzamide]
IC50 [1, 7]: 0.014 nM
IC50 [1, 8]: 0.014 nM
IC50 [2]: 0.13 nM
Ratio of Bcl-2 G101V/WT [3]: 9
IC50 [4]: 0.38 nM
IC50 [5]: 1.5 nM
IC50 [6]: 100 pM
Ratio of Bcl-2 D103Y/Bcl-2 WT [6]: 7.1

Structure (SMILES): COc1cc(CN2CCN(C3CC4(CCN(c5ccc(C(=O)NS(=O)(=O)c6ccc(NC[C@H]7CC[C@](C)(O)CC7)c([N+](=O)[O-])c6)c(Oc6cnc7[nH]ccc7c6)c5)CC4)C3)C(c3ccccc3C(C)C)C2)ccc1F (some centres unmarked) [Example 121, 2-((1H-pyrrolo[2,3-b]pyridin-5-yl)oxy)-4-(2-(4-(4-fluoro-3-methoxybenzyl)-2-(2-isopropylphenyl)piperazin-1-yl)-7-azaspiro[3.5]nonan-7-yl)-N-((4-((((1r,4r)-4-hydroxy-4-methylcyclohexyl)methyl)amino)-3-nitrophenyl)sulfonyl)benzamide]
IC50 [1, 7]: 0.28 nM
IC50 [1, 8]: 0.28 nM
IC50 [2]: 1.1 nM
Ratio of Bcl-2 G101V/WT [3]: 3.8
IC50 [4]: 0.24 nM
IC50 [5]: 1.13 nM
IC50 [6]: 420 pM
Ratio of Bcl-2 D103Y/Bcl-2 WT [6]: 1.5

Structure (SMILES): COc1cc(CN2CCN(C3CC4(CCN(c5ccc(C(=O)NS(=O)(=O)c6ccc(NC[C@H]7CC[C@](C)(O)CC7)c([N+](=O)[O-])c6)c(Oc6cnc7[nH]ccc7c6)c5)CC4)C3)C(c3ccccc3C(C)C)C2)cnc1OC (some centres unmarked) [Example 176, 2-((1H-pyrrolo[2,3-b]pyridin-5-yl)oxy)-4-(2-(4-((5,6-dimethoxypyridin-3-yl)methyl)-2-(2-isopropylphenyl)piperazin-1-yl)-7-azaspiro[3.5]nonan-7-yl)-N-((4-((((1r,4r)-4-hydroxy-4-methylcyclohexyl)methyl)amino)-3-nitrophenyl)sulfonyl)benzamide]
IC50 [1, 7]: 0.035 nM
IC50 [1, 8]: 0.035 nM
IC50 [2]: 0.15 nM
Ratio of Bcl-2 G101V/WT [3]: 4.3
IC50 [4]: 0.39 nM
IC50 [5]: 1 nM
IC50 [6]: 61 pM
Ratio of Bcl-2 D103Y/Bcl-2 WT [6]: 1.7

Structure (SMILES): COc1cc(CN2CCN(C3CC4(C3)CN(c3ccc(C(=O)NS(=O)(=O)c5ccc(NC[C@H]6CC[C@](C)(O)CC6)c([N+](=O)[O-])c5)c(Oc5cnc6[nH]cc(F)c6c5)c3)C4)[C@H](c3ccccc3C(C)C)C2)ccc1OC1COC1 [Example 351]
IC50 [1, 7]: 0.042 nM
IC50 [1, 8]: 0.04 nM
IC50 [2]: 0.11 nM
Ratio of Bcl-2 G101V/WT [3]: 2.6
IC50 [4]: 0.09 nM
IC50 [5]: 0.13 nM
IC50 [6]: 70 pM
Ratio of Bcl-2 D103Y/Bcl-2 WT [6]: 1.7

Structure (SMILES): COc1ccc(CN2CCN(C3CC4(C3)CN(c3ccc(C(=O)NS(=O)(=O)c5ccc(NC[C@H]6CC[C@](C)(O)CC6)c([N+](=O)[O-])c5)c(Oc5cnc6[nH]cc(F)c6c5)c3)C4)[C@H](c3ccccc3C(C)C)C2)nc1 [Example 241, 2-((3-fluoro-1H-pyrrolo[2,3-b]pyridin-5-yl)oxy)-N-((4-((((1r,4r)-4-hydroxy-4-methylcyclohexyl)methyl)amino)-3-nitrophenyl)sulfonyl)-4-(6-((R)-2-(2-isopropylphenyl)-4-((5-methoxypyridin-2-yl)methyl)piperazin-1-yl)-2-azaspiro[3.3]heptan-2-yl)benzamide]
IC50 [1, 7]: 0.035 nM
IC50 [1, 8]: 0.035 nM
IC50 [2]: 0.096 nM
Ratio of Bcl-2 G101V/WT [3]: 2.7
IC50 [4]: 0.15 nM
IC50 [5]: 0.32 nM
IC50 [6]: 47 pM
Ratio of Bcl-2 D103Y/Bcl-2 WT [6]: 1.3

Structure (SMILES): COc1ccc(CN2CCN(C3CC4(CCN(c5ccc(C(=O)NS(=O)(=O)c6ccc(NC[C@H]7CC[C@](C)(O)CC7)c([N+](=O)[O-])c6)c(Oc6cnc7[nH]cc(F)c7c6)c5)CC4)C3)[C@H](c3ccccc3C(C)C)C2)cn1 [Example 217, 2-((3-fluoro-1H-pyrrolo[2,3-b]pyridin-5-yl)oxy)-N-((4-((((1r,4r)-4-hydroxy-4-methylcyclohexyl)methyl)amino)-3-nitrophenyl)sulfonyl)-4-(2-((R)-2-(2-isopropylphenyl)-4-((6-methoxypyridin-3-yl)methyl)piperazin-1-yl)-7-azaspiro[3.5]nonan-7-yl)benzamide]
IC50 [1, 7]: 0.074 nM
IC50 [1, 8]: 0.074 nM
IC50 [2]: 0.17 nM
Ratio of Bcl-2 G101V/WT [3]: 2.4
IC50 [4]: 0.11 nM
IC50 [5]: 0.41 nM
IC50 [6]: 100 pM
Ratio of Bcl-2 D103Y/Bcl-2 WT [6]: 1.4

IC50 [1, 7]: 0.16 nM
IC50 [1, 8]: 0.16 nM
IC50 [2]: 10 nM
IC50 [4]: 6.8 nM
IC50 [5]: 44 nM
IC50 [6]: 16000 pM
Ratio of Bcl-2 D103Y/Bcl-2 WT [6]: 100
Structure (SMILES): COc1ccc(CN2CCN(C3CC4(CCN(c5ccc(C(=O)NS(=O)(=O)c6ccc(NC[C@H]7CC[C@](C)(O)CC7)c([N+](=O)[O-])c6)c(Oc6cnc7[nH]ccc7c6)c5)CC4)C3)[C@@H](c3ccccc3C(C)C)C2)cc1 [Example 19b, 2-((1H-pyrrolo[2,3-b]pyridin-5-yl)oxy)-N-((4-((((1r,4r)-4-hydroxy-4-methylcyclohexyl)methyl)amino)-3-nitrophenyl)sulfonyl)-4-(2-((S)-2-(2-isopropylphenyl)-4-(4-methoxybenzyl)piperazin-1-yl)-7-azaspiro[3.5]nonan-7-yl)benzamide]
Ratio of Bcl-2 G101V/WT [3]: 62.5
